Data set [1] is described as follows: Blood drug concentration analysis (LC-MS/MS) in In Vivo Depletion Assay. Conditions: human CCR2 (hCCR2) knock-in, 057 background, mouse, whole blood, hCCR2 knock-in mice, IV 0.1 mpk compound + 10 mpk anti-cotinine antibody, 48 hours post-dose, read-out: Exposure of Compound of Formula (I) 48 hours post-dose.
Data set [2] relates to CCR2 expressing cells (CD11b+Ly6c+ Hi) in peripheral blood. In words: In Vivo Depletion Assay (flow cytometry of peripheral blood). Details: species or system Human CCR2 (hCCR2) knock-in mice. The following applies: hCCR2 knock-in mice; IV 0.1 mpk compound + 10 mpk anti-cotinine antibody (mouse IgG2a Fc); peripheral blood at 48 hr. In general terms: Flow cytometry measures light scatter and fluorescence of single cells or particles in a stream.

Molecules are shown by their SMILES. Where a name gives a salt, the structure may show the parent alone.

As to `CO[C@H]1COCC[C@H]1N[C@H]1CC[C@@](CCCNC(=O)[C@H]2CC[C@@H](NC(=O)CCOCCOCCNC(=O)CCNC(=O)[C@H]3CC(=O)N(C)[C@@H]3c3cccnc3)CC2)(C(=O)N2CCc3ncc(C(F)(F)F)cc3C2)C1` [Example 19, (2S,3S)—N-(3-((2-(2-(3-(((1s,4s)-4-((3-((1R,3S)-3-(((3R,4R)-3-Methoxytetrahydro-2H-pyran-4-yl)amino)-1-(3-(trifluoromethyl)-5,6,7,8-tetrahydro-1,6-naphthyridine-6-carbonyl)cyclopentyl)propyl)carbamoyl)cyclohexyl)amino)-3-oxopropoxy)ethoxy)ethyl)amino)-3-oxopropyl)-1-methyl-5-oxo-2-(pyridin-3-yl)pyrrolidine-3-carboxamide], the concentration at 48 h in data set [1] stood at 54.2 ng/mL. Further, the “% Depletion of CCR2 expressing cells” value in data set [2] worked out at 85.39%.

For `CO[C@@H]1COCC[C@@H]1N[C@@H]1CC[C@](CCCNC(=O)CCOCCOCCOCCOCCOCCOCCOCCOCCOCCOCCOCCOCCNC(=O)[C@H]2CC(=O)N(C)[C@@H]2c2cccnc2)(C(=O)N2CCc3ncc(C(F)(F)F)cc3C2)C1` [Example 1, (2S,3S)—N-(43-((1S,3R)-3-(((3S,4S)-3-methoxytetrahydro-2H-pyran-4-yl)amino)-1-(3-(trifluoromethyl)-5,6,7,8-tetrahydro-1,6-naphthyridine-6-carbonyl)cyclopentyl)-39-oxo-3,6,9,12,15,18,21,24,27,30,33,36-dodecaoxa-40-azatritetracontyl)-1-methyl-5-oxo-2-(pyridin-3-yl)pyrrolidine-3-carboxamide], the concentration at 48 h in data set [1] was 55.7 ng/mL. In data set [2], the “% Depletion of CCR2 expressing cells” value worked out at 91.67%.

For `CO[C@@H]1COCC[C@@H]1N[C@@H]1CC[C@](CCCNC(=O)[C@H]2CC[C@@H](NC(=O)CCOCCOCCOCCNC(=O)[C@H]3CC(=O)N(C)[C@@H]3c3cccnc3)CC2)(C(=O)N2CCc3ncc(C(F)(F)F)cc3C2)C1` [Example 17, (2S,3S)—N-(2-(2-(2-(3-(((1R,4s)-4-((3-((1S,3R)-3-(((3S,4S)-3-Methoxytetrahydro-2H-pyran-4-yl)amino)-1-(3-(trifluoromethyl)-5,6,7,8-tetrahydro-1,6-naphthyridine-6-carbonyl)cyclopentyl)propyl)carbamoyl)cyclohexyl)amino)-3-oxopropoxy)ethoxy)ethoxy)ethyl)-1-methyl-5-oxo-2-(pyridin-3-yl)pyrrolidine-3-carboxamide, Formic acid salt], the concentration at 48 h in data set [1] came out at 28.3 ng/mL. Also, the “% Depletion of CCR2 expressing cells” value in data set [2] is listed as 96.07%.

The values above are taken from patent publication US20250154288A1, “CYTOTOXICITY TARGETING CHIMERAS FOR C-C CHEMOKINE RECEPTOR 2-EXPRESSING CELLS” (GLAXOSMITHKLINE INTELLECTUAL PROPERTY DEVELOPMENT LIMITED, priority 2022, published 2025).
